Results published in US8575181B2, “Purine derivatives for use in the treatment of allergic, inflammatory and infectious diseases” (GlaxoSmithKline LLC, priority 2008, dated 2013).

Tests used:
Assay type in all cases: cell-based
Interferon-α [1] = assay: Induction of Interferon-α using cryopreserved human PBMCs; settings: PBMC, 24 h, 24 h incubation, normalised to 1 uM resiquimod and DMSO, read-out: mean pEC50 (induction of Interferon-α) (converted)
Method: Assay for the Induction of Interferon-α Using Cryopreserved Human Peripheral Blood Mononuclear Cells (PBMCs)
Compounds were dissolved in DMSO. Serial 2-fold dilutions with DMSO were prepared and 0.25 μl dispensed into 384-well clear Greiner polypropylene plates.
Blood samples of up to 200 ml were obtained from healthy human donors. Whole blood in 25 ml volumes was overlaid onto 15 ml Ficoll gradients in Leucosep tubes, and centrifuged at 1000 g for 20 min. Cells in the band at the plasma/histopaque interface were carefully removed and washed twice with PBS (centrifuged at 400 g for 5 min to harvest). The final pellet was resuspended in freezing medium (90% Heat-inactivated serum, 10% DMSO) to a cell concentration of 4×10^7 cells/ml. The resuspended cells were then cryopreserved (frozen) using a rate controlled freezer, and stored at −140° C. for up to 4 months.
Incubation and Assay for Interferon-α
Immediately prior to assay, vials of cryopreserved (frozen) PBMCs were thawed rapidly in a water bath at 37° C. A 1:10 dilution of the cells in trypan blue was prepared and counted. The PBMCs were then diluted in growth media [RPMI 1640 containing 10% fetal calf serum (invitrogen), Penicillin+[…] (Gibco cat. #25030-024, 1:50), L-Glutamine 2 mM, and 1000 units/ml recombinant human IFN-gamma (Preprotech catalogue #300-02)] to a density of 1×10^6 cells/ml, and 50 ul/well dispensed to 384-well clear Greiner polypropylene plates containing 0.25 μl DMSO or test compound in 0.25 μl DMSO. […] Plates were incubated for 24 h at 37° C. in 5% CO2.
A multi-isoform immunoassay was used to quantify IFN-α in PBMC supernatants. Rabbit polyclonal antibody against human IFN-α (catalogue number 31101, Stratech Scientific) was diluted 1:10000 in assay buffer (RPMI 1640 containing 10% fetal calf serum, Invitrogen) and 20 μl was added to each well of an MSD (Meso-Scale Discovery) single small-spot 384-well GAR (goat anti-rabbit antibody coated) plate. The plate was incubated for 1 h at room temperature with vigorous shaking. Following three washes with PBS, 20 μl of cell supernatant were added to each well of the plate. The plate was then incubated for 1 h at room temperature with vigorous shaking. A pair of monoclonal antibodies to IFN-α (catalogue numbers 21100 and 21112, Stratech Scientific) were labelled with sulfo-TAG (MSD), diluted 1:1000 in assay buffer and 20 μl added to each well of the plate. The plate was further incubated for 1 h at room temperature with vigorous shaking. Following three washes with PBS, 30 μl of ×2 T buffer (MSD) was added to each well and the plate was read on an MSD Sector 6000 plate reader.
Data were normalised to internal plate controls of 1 uM resiquimod (n=16) and DMSO (n=16). pEC50 values were derived by 4-parameter curve fit with IRLS in ActivityBase, from 11-point, two-fold serial dilution of test compounds.

TNF-α = assay: Induction of TNF-α using fresh human PBMCs; settings: PBMC, two donors, 24 hr incubation, percentage of 2 μM resiquimod control, read-out: mean pEC50 for induction of TNF-α (converted)
Method: (§1) Assay for the Induction of Interferon-α and TNF-α Using Fresh Human Peripheral Blood Mononuclear Cells (PBMCs)
(§2) Compounds were dissolved and serially diluted in DMSO to give 100× the required concentration range using a Biomek 2000. 1 ul of test compound was transferred into 96-well tissue culture plates using a Biomek FX. Each compound was assayed in duplicate for each donor. Each plate contained a dilution series of the TLR7/8 agonist resiquimod as standard and Column 11 contained 1 μl of 200 μM resiquimod (giving a 2 μM final concentration, used to define the approximate maximal response to resiquimod).
(§3) Blood samples from two human donors were collected into sodium heparin (10 U/ml). 25 ml volumes of whole blood were overlaid onto 15 mls Histopaque in Leucosep tubes which were centrifuged at 800 g for 20 min and the band at the plasma/histopaque interface carefully removed. The collected cells were centrifuged at 2500 rpm for 10 min and the pellet resuspended in 10 ml of media (RPMI 1640 (Low endotoxin) supplemented with 10% v/v foetal calf serum (FCS, low endotoxin) 100 U/ml penicillin G, 100 μg/ml streptomycin, 10 mM L-glutamine and 1× non-essential amino acids). A 1:20 dilution of the cells was prepared using trypan blue & the cells counted using a haemocytometer. The PBMCs were diluted to give a final concentration of 2×10^6/ml and 100 ul of this cells suspension was added to wells containing 1 μl of diluted test compound.
(§4) Incubation and Assays for Interferon-α and TNF-α
(§5) The cell preparations were incubated for 24 hr (37° C., 95% air, 5% CO2) after which a sample of the supernatant was removed using the Biomek FX and assayed for both IFN-α and TNF-α using the MSD (Mesoscale Discovery) electrochemiluminescence assay platform. The IFN-α assay was carried out similarly to that described above. The TNF-α assay was carried out as per kit instructions (Cat No K111BHB).
(§6) Cytokine released was expressed as a percentage of the 2 μM resiquimod control (column 11). This percentage was plotted against compound concentration and the pEC50 for the response determined by non-linear least squares curve fitting. For the IFN-α responses generally a 4 parameter logistic model was selected. For the TNF responses where a clear maximum response was obtained (i.e. a well defined plateau in the response was observed) then a 4 parameter model was generally used. If the upper asymptote of the curve wasn't well defined then the curve fitting was generally constrained to a maximal response of 100% (i.e. to the response to 2 μM resiquimod) or to the response of the highest concentration tested if this was greater than the resiquimod response. Some curves were bell shaped for one or both cytokines and the cytokine data on the down slope of the bell shaped response (i.e. concentrations above those giving the maximal response) were generally excluded from the fit, usually with the exception of the concentration immediately above the peak response. Curve fitting thus concentrated on the up slope of the dose response curve.

Interferon-α [2] = assay: Induction of Interferon-α using fresh human PBMCs; settings: PBMC, two donors, 24 hr incubation, percentage of 2 μM resiquimod control, read-out: mean pEC50 for induction of IFN-α (converted)
Method: as §1, §2, §3, §4, §5, §6

## CCCCNc1nc(N)c2[nH]c(=O)n(CCCNCC3CCOCC3)c2n1 [Example 17, 6-Amino-2-(butylamino)-9-{3-[(tetrahydro-2H-pyran-4-ylmethyl)amino]propyl}-7,9-dihydro-8H-purin-8-one]
Interferon-α [1]
  EC50: < 10 µM

## CCCCNc1nc(N)c2[nH]c(=O)n(CCCNCCC3CCCCO3)c2n1 (centres unmarked) [Example 18, 6-Amino-2-(butylamino)-9-(3-{[2-(tetrahydro-2H-pyran-2-yl)ethyl]amino}propyl)-7,9-dihydro-8H-purin-8-one]
Interferon-α [1]
  EC50: < 10 µM

## CCCCOc1nc(N)c2[nH]c(=O)n(CCCNCC3CCOCC3)c2n1 [Example 8, 6-Amino-2-(butyloxy)-9-{3-[(tetrahydro-2H-pyran-4-ylmethyl)amino]propyl}-7,9-dihydro-8H-purin-8-one]
TNF-α
  EC50: > 10 µM
Interferon-α [2]
  EC50: < 1 µM
Interferon-α [1]
  EC50: < 10 µM

## CCCCOc1nc(N)c2[nH]c(=O)n(CCCNCCC3CCCOC3)c2n1 (centres unmarked) [Example 10, 6-Amino-2-(butyloxy)-9-(3-{[2-(tetrahydro-2H-pyran-3-yl)ethyl]amino}propyl)-7,9-dihydro-8H-purin-8-one]
Interferon-α [1]
  EC50: < 10 µM

## CCCCOc1nc(N)c2[nH]c(=O)n(CCCNCC3CCCOC3)c2n1 (centres unmarked) [Example 7, 6-Amino-2-(butyloxy)-9-{3-[(tetrahydro-2H-pyran-3-ylmethyl)amino]propyl}-7,9-dihydro-8H-purin-8-one]
Interferon-α [1]
  EC50: < 10 µM

## CCCCOc1nc(N)c2[nH]c(=O)n(CCCN[C@@H]3CCCO3)c2n1 [Example 2, 6-Amino-2-(butyloxy)-9-{3-[(2S)-tetrahydro-2-furanylamino]propyl}-7,9-dihydro-8H-purin-8-one]
Interferon-α [1]
  EC50: < 10 µM

## CCC[C@H](C)Oc1nc(N)c2[nH]c(=O)n(CCCNCC3CCCO3)c2n1 (stereo partly drawn) [Example 12, 6-Amino-2-{[(1S)-1-methylbutyl]oxy}-9-{3-[(tetrahydro-2-furanylmethyl)amino]propyl}-7,9-dihydro-8H-purin-8-one]
TNF-α
  EC50: > 1 µM
Interferon-α [2]
  EC50: < 0.1 µM

## CCCCOc1nc(N)c2[nH]c(=O)n(CCCNCC3CCOC3)c2n1 (centres unmarked) [Example 4, 6-Amino-2-(butyloxy)-9-{3-[(tetrahydro-3-furanylmethyl)amino]propyl}-7,9-dihydro-8H-purin-8-one]
Interferon-α [1]
  EC50: < 10 µM

## CCC[C@H](C)Oc1nc(N)c2[nH]c(=O)n(CCCNCCC3CCCO3)c2n1 (stereo partly drawn) [Example 13, 6-Amino-2-{[(1S)-1-methylbutyl]oxy}-9-(3-{[2-(tetrahydro-2-furanyl)ethyl]amino}propyl)-7,9-dihydro-8H-purin-8-one]
TNF-α
  EC50: > 1 µM
Interferon-α [2]
  EC50: < 0.1 µM

## CCCCOc1nc(N)c2[nH]c(=O)n(CCCN[C@H]3CCCO3)c2n1 [Example 1, 6-Amino-2-(butyloxy)-9-{3-[(2R)-tetrahydro-2-furanylamino]propyl}-7,9-dihydro-8H-purin-8-one]
Interferon-α [1]
  EC50: < 10 µM

## CCCCOc1nc(N)c2[nH]c(=O)n(CCCNCC3CCCO3)c2n1 (centres unmarked) [Example 3, 6-Amino-2-(butyloxy)-9-{3-[(tetrahydro-2-furanylmethyl)amino]propyl}-7,9-dihydro-8H-purin-8-one]
TNF-α
  EC50: > 10 µM
Interferon-α [2]
  EC50: < 1 µM
Interferon-α [1]
  EC50: < 10 µM

## CCCCNc1nc(N)c2[nH]c(=O)n(CCCNCCC3CCCO3)c2n1 (centres unmarked) [Example 16, 6-Amino-2-(butylamino)-9-(3-{[2-(tetrahydro-2-furanyl)ethyl]amino}propyl)-7,9-dihydro-8H-purin-8-one]
TNF-α
  EC50: > 10 µM
Interferon-α [2]
  EC50: < 1 µM
Interferon-α [1]
  EC50: < 10 µM

## CCCCOc1nc(N)c2[nH]c(=O)n(CCCNCC3CCCCO3)c2n1 (centres unmarked) [Example 6, 6-Amino-2-(butyloxy)-9-{3-[(tetrahydro-2H-pyran-2-ylmethyl)amino]propyl}-7,9-dihydro-8H-purin-8-one]
Interferon-α [1]
  EC50: < 10 µM

## CCCCOc1nc(N)c2[nH]c(=O)n(CCCNCCC3CCCO3)c2n1 (centres unmarked) [Example 5, 6-Amino-2-(butyloxy)-9-(3-{[2-(tetrahydro-2-furanyl)ethyl]amino}propyl)-7,9-dihydro-8H-purin-8-one]
TNF-α
  EC50: > 10 µM
Interferon-α [2]
  EC50: < 1 µM
Interferon-α [1]
  EC50: < 10 µM

## CCC[C@H](C)Oc1nc(N)c2[nH]c(=O)n(CCCNCC3CCOCC3)c2n1 [Example 14, 6-Amino-2-{[(1S)-1-methylbutyl]oxy}-9-{3-[(tetrahydro-2H-pyran-4-ylmethyl)amino]propyl}-7,9-dihydro-8H-purin-8-one]
TNF-α
  EC50: > 1 µM
Interferon-α [2]
  EC50: < 0.1 µM
Interferon-α [1]
  EC50: < 10 µM

## CCCCOc1nc(N)c2[nH]c(=O)n(CCCNCCC3CCOCC3)c2n1 [Example 11, 6-Amino-2-(butyloxy)-9-(3-{[2-(tetrahydro-2H-pyran-4-yl)ethyl]amino}propyl)-7,9-dihydro-8H-purin-8-one]
Interferon-α [1]
  EC50: < 10 µM

## CCCCNc1nc(N)c2[nH]c(=O)n(CCCNCC3CCCO3)c2n1 (centres unmarked) [Example 15, 6-Amino-2-(butylamino)-9-{3-[(tetrahydro-2-furanylmethyl)amino]propyl}-7,9-dihydro-8H-purin-8-one]
Interferon-α [1]
  EC50: < 10 µM

## CCCCOc1nc(N)c2[nH]c(=O)n(CCCNCCC3CCCCO3)c2n1 (centres unmarked) [Example 9, 6-Amino-2-(butyloxy)-9-(3-{[2-(tetrahydro-2H-pyran-2-yl)ethyl]amino}propyl)-7,9-dihydro-8H-purin-8-one]
TNF-α
  EC50: > 10 µM
Interferon-α [2]
  EC50: < 1 µM
Interferon-α [1]
  EC50: < 10 µM
